Laboratory results taken from ChEMBL document CHEMBL3992552, “Mechanisms of action and structure-activity relationships of cytotoxic flavokawain derivatives” (Bioorg Med Chem, 2017).
Active and inactive are the calls of the source. No cut-off for these calls is given here.

Assays:
HaCaT = test: Cell cycle arrest in human HaCaT cells assessed as accumulation at G1/S phase by Hoechst staining based fluorescence assay; format: functional
MDA-MB-231 = test: Induction of apoptosis in human MDA-MB-231 cells harboring p53 mutant assessed as increase in early apoptosis at 2 times IC50 after 24 hrs by YoPro/propidium iodide/Hoechst staining based assay; format: functional, cell-based
PC-3 = test: Cell cycle arrest in human PC3 cells assessed as accumulation at G1/S phase by Hoechst staining based fluorescence assay; format: functional
Huh-7 [1] = test: Cell cycle arrest in human HuH7 cells assessed as accumulation at G1/S phase by Hoechst staining based fluorescence assay; format: functional
Huh-7 [2] = test: Cell cycle arrest in human HuH7 cells assessed as accumulation at M phase by Hoechst staining based fluorescence assay; format: functional
HCT-116 [3] = test: Cell cycle arrest in human HCT116 cells harboring wild-type p53 assessed as accumulation at S phase at 24 uM measured after 48 hrs by Hoechst/BrdU staining based fluorescence assay (reference value: 68%); format: functional
HCT-116 [4] = test: Cell cycle arrest in human HCT116 cells harboring wild-type p53 assessed as accumulation at M phase at 12 uM measured after 48 hrs by Hoechst staining based fluorescence assay (reference value: 2.3 to […]); format: functional
HCT-116 [5] = test: Cell cycle arrest in human HCT116 cells harboring wild-type p53 assessed as accumulation at S phase at 12 uM measured after 48 hrs by Hoechst/BrdU staining based fluorescence assay (reference value: 68%); format: functional
HCT-116 [6] = test: Cell cycle arrest in human HCT116 cells harboring wild-type p53 assessed as accumulation at M phase at 24 uM measured after 48 hrs by Hoechst staining based fluorescence assay (reference value: 2.3 to […]); format: functional

Which Activity (HaCaT) does the source give for `COc1cc(O)c(C(=O)/C=C/c2ccccc2)c(OC)c1` [FLAVOKAWAIN B] here?
Its Activity is “Active”.

And the Activity (MDA-MB-231)?
The Activity was “Active”.

What about the Activity (PC-3) of the same molecule?
The Activity was “Active”.

What about the Activity (Huh-7 [1]) of the same molecule?
The Activity was “Active”.

`COc1cc(O)c(C(=O)/C=C/c2ccccc2SC)c(OC)c1` was tested. Which Activity (Huh-7 [2]) did it give?
The Activity was “Active”.

Which results are given for `COc1cccc(/C=C/C(=O)c2c(O)cc(OC)cc2OC)c1`?
Activity (HaCaT): Active; Activity (MDA-MB-231): Active; Activity (Huh-7 [1]): Active

With `COc1cc(OC)c(C(=O)/C=C/c2ccc(Br)cc2)c(OC)c1` as the molecule, how does the Activity (MDA-MB-231) read?
Its Activity is “Active”.

What about the Activity (Huh-7 [2]) of the same molecule?
The Activity was “Active”.

`COc1cc(OC)c(C(=O)/C=C/c2ccc(F)cc2)c(OC)c1` was tested. Which Activity (MDA-MB-231) did it give?
The Activity was “Active”.

And the Activity (Huh-7 [2])?
The Activity was “Active”.

What does the source list for `COc1cc(OC)c(C(=O)/C=C/c2ccccc2SC)c(OC)c1`?
Activity (MDA-MB-231): Active; Activity (Huh-7 [2]): Active

For `COc1cc(OC)c(C(=O)/C=C/c2ccccc2)c(OC)c1`, which Activity (MDA-MB-231) is on record?
The Activity was “Active”.

`COc1cccc(/C=C/C(=O)c2c(OC)cc(OC)cc2OC)c1` was tested. Which Activity (HCT-116 [3]) did it give?
The Activity was 0.6%.

What about the Activity (HCT-116 [4]) of the same molecule?
Its Activity is 4.5%.

And the Activity (MDA-MB-231)?
The Activity was “Active”.

And the Activity (HCT-116 [5])?
Its Activity is 20%.

And the Activity (Huh-7 [2])?
The Activity was “Active”.

What about the Activity (HCT-116 [6]) of the same molecule?
The Activity was 1.2%.
